Here are results for 17 molecules from patent US11286255B2, “Pyridone carboxylic acid derivative or salt thereof” (WAKUNAGA PHARMACEUTICAL CO., LTD., priority 2017, dated 2022).

What is called IC50 is the concentration needed to halve the response being measured. Read a high IC50 as lower potency.

The first test relates to NCI-H460 (human non-small cell lung cancer cell line). The test can be described thus: In vitro cell growth inhibition test against NCI-H460. Format: cell-based. The settings on record: 72 h, NCI-H460 cells, 3 days culture, WST-8 (Cell Counting Kit-8), 50% growth inhibition concentration. As to the method:
Test Example 1: In Vitro Cell Growth Inhibition Test Against NCI-H460 (Human Non-Small Cell Lung Cancer Cell Line)
An NCI-H460 cell suspension was inoculated at 4×10^3 cells/100 μL/well (0.1 mL) to a 96-well flat-bottomed multiplate using RPMI-1640 (Sigma-Aldrich Co. LLC, R8758) medium containing 10% […] (fetal bovine serum, Thermo Fisher Scientific Inc.), and cultured at 37° C. for 1 day in an incubator containing 5% carbon dioxide. The compound of the present invention was dissolved at a concentration of 1 mM in dimethyl sulfoxide and further diluted into 5.00, 2.50, 1.25, 0.63, 0.31, 0.16, 0.078, and 0.039 μM (final concentrations) using dimethyl sulfoxide and RPMI-1640 medium. Each of these dilutions was added at 0.1 mL/well to the culture plate of the NCI-H460 cells mentioned above after removal of the medium, and the cells were cultured at 37° C. for 3 days in an incubator containing 5% carbon dioxide.
After the culture, Cell Counting Kit-8 (Dojindo Laboratories), which adopts WST-8 [2-(2-methoxy-4-nitrophenyl)-3-(4-nitrophenyl)-5-(2,4-disulfophenyl)-2H-tetrazolium monosodium salt] as a chromogenic substrate, was added at 10 μL/well, and the cells were cultured under the same conditions as above for 1 hour, followed by measurement of absorbance at 450 nm. A cell survival rate was calculated in terms of 50% growth inhibition concentration (IC50 (μM)) by the least square method with that of a control group defined as 100%.
Molecule `CCOCC(COCC)NC(=O)C1CN(c2cc(C)c3c(=O)c(C(=O)O)cn(-c4nccs4)c3n2)C1` [Example 006, 7-{3-[(1,3-Diethoxypropan-2-yl)carbamoyl]azetidin-1-yl}-5-methyl-4-oxo-1-(1,3-thiazol-2-yl)-1,4-dihydro-1,8-naphthyridine-3-carboxylic acid] had an IC50 of 0.11 µM.

In the case of `CC(=O)C1CN(c2cc(C)c3c(=O)c(C(=O)O)cn(-c4nccs4)c3n2)C1` [Example 020, 7-(3-Acetylazetidin-1-yl)-5-methyl-4-oxo-1-(1,3-thiazol-2-yl)-1,4-dihydro-1,8-naphthyridine-3-carboxylic acid], the IC50 was found to be 0.34 µM.

Take `O=C(O)c1cn(-c2nccs2)c2nc(N3CC(C(=O)Nc4ccccn4)C3)c(F)cc2c1=O` [Example 083, 6-Fluoro-4-oxo-7-{3-[(pyridin-2-yl)carbamoyl]azetidin-1-yl}-1-(1,3-thiazol-2-yl)-1,4-dihydro-1,8-naphthyridine-3-carboxylic acid]: the IC50 amounted to 0.19 µM.

As to `O=C(O)c1cn(-c2nccs2)c2nc(N3CC(C(=O)NCC4CCCCO4)C3)c(F)cc2c1=O` (centres unmarked) [Example 173, 6-Fluoro-7-{3-[(oxan-2-ylmethyl)carbamoyl]azetidin-1-yl}-4-oxo-1-(1,3-thiazol-2-yl)-1,4-dihydro-1,8-naphthyridine-3-carboxylic acid], half-maximal inhibition (IC50) required 0.26 µM.

`CCCn1nc(NC(=O)C2CN(c3nc4c(c(C)c3F)c(=O)c(C(=O)O)cn4-c3ncns3)C2)cc1C` [Example 218, 6-Fluoro-5-methyl-7-{3-[(5-methyl-1-propyl-1H-pyrazol-3-yl)carbamoyl]azetidin-1-yl}-4-oxo-1-(1,2,4-thiadiazol-5-yl)-1,4-dihydro-1,8-naphthyridine-3-carboxylic acid] came in with an IC50 of 0.26 µM.

Consider `COCC(COC)NC(=O)C1CN(c2cc(C)c3c(=O)c(C(=O)O)cn(-c4nccs4)c3n2)C1` [Example 243, 7-{3-[(1,3-Dimethoxypropan-2-yl)carbamoyl]azetidin-1-yl}-5-methyl-4-oxo-1-(1,3-thiazol-2-yl)-1,4-dihydro-1,8-naphthyridine-3-carboxylic acid], for which the IC50 was found to be 0.22 µM.

In the case of `CCOCCNC(=O)C1CN(c2cc(C)c3c(=O)c(C(=O)O)cn(-c4nc(-c5cccnc5)cs4)c3n2)C1` [Example 414, 7-{3-[(2-Ethoxyethyl)carbamoyl]azetidin-1-yl}-5-methyl-4-oxo-1-[4-(pyridin-3-yl)-1,3-thiazol-2-yl]-1,4-dihydro-1,8-naphthyridine-3-carboxylic acid], half-maximal inhibition (IC50) required 0.4 µM.

In the case of `Cc1c(F)c(N2CC(n3cccn3)C2)nc2c1c(=O)c(C(=O)O)cn2-c1nccs1` [Example 487, 6-Fluoro-5-methyl-4-oxo-7-[3-(1H-pyrazol-1-yl)azetidin-1-yl]-1-(1,3-thiazol-2-yl)-1,4-dihydro-1,8-naphthyridine-3-carboxylic acid], the IC50 came to 0.16 µM.

The molecule `Cc1cnc(C2CN(c3cc(C)c4c(=O)c(C(=O)O)cn(-c5ncns5)c4n3)C2)o1` [Example 489, 5-Methyl-7-[3-(5-methyl-1,3-oxazol-2-yl)azetidin-1-yl]-4-oxo-1-(1,2,4-thiadiazol-5-yl)-1,4-dihydro-1,8-naphthyridine-3-carboxylic acid] displayed an IC50 of 0.26 µM.

Regarding `Cc1cc(N2CC(c3ccon3)C2)nc2c1c(=O)c(C(=O)O)cn2-c1ncns1` [Example 499, 5-Methyl-7-[3-(1,2-oxazol-3-yl)azetidin-1-yl]-4-oxo-1-(1,2,4-thiadiazol-5-yl)-1,4-dihydro-1,8-naphthyridine-3-carboxylic acid], half-maximal inhibition (IC50) was put at 0.2 µM.

In turn, `CCONC1CN(c2cc(C)c3c(=O)c(C(=O)O)cn(-c4ncns4)c3n2)C1` [Example 541, 7-[3-(Ethoxyamino)azetidin-1-yl]-5-methyl-4-oxo-1-(1,2,4-thiadiazol-5-yl)-1,4-dihydro-1,8-naphthyridine-3-carboxylic acid] showed an IC50 of 0.39 µM.

Molecule `O=C(O)c1cn(-c2ncns2)c2nc(N3CC(NOCc4ccccc4)C3)c(F)cc2c1=O` [Example 549, 7-{3-[(Benzyloxy)amino]azetidin-1-yl}-6-fluoro-4-oxo-1-(1,2,4-thiadiazol-5-yl)-1,4-dihydro-1,8-naphthyridine-3-carboxylic acid] showed an IC50 of 0.19 µM.

On to `CNOC1CN(c2cc(C)c3c(=O)c(C(=O)O)cn(-c4ncns4)c3n2)C1` [Example 553, 5-methyl-7-{3-[(methylamino)oxy]azetidin-1-yl}-4-oxo-1-(1,2,4-thiadiazol-5-yl)-1,4-dihydro-1,8-naphthyridine-3-carboxylic acid], for which half-maximal inhibition (IC50) required 0.38 µM.

In turn, `O=C(O)c1cn(-c2nccs2)c2nc(N3CC(CNc4ccccn4)C3)c(F)cc2c1=O` [Example 561, 6-Fluoro-4-oxo-7-(3-{[(pyridin-2-yl)amino]methyl}azetidin-1-yl)-1-(1,3-thiazol-2-yl)-1,4-dihydro-1,8-naphthyridine-3-carboxylic acid] gave an IC50 of 0.9 µM.

In the case of `Cc1ccc(C(=O)NC2CN(c3cc(C)c4c(=O)c(C(=O)O)cn(-c5ncns5)c4n3)C2)nc1` [Example 584, 5-Methyl-7-[3-(5-methylpyridine-2-amido)azetidin-1-yl]-4-oxo-1-(1,2,4-thiadiazol-5-yl)-1,4-dihydro-1,8-naphthyridine-3-carboxylic acid], half-maximal inhibition (IC50) required 0.21 µM.

Regarding `Cc1ccc(C(=O)NC2CN(c3nc4c(cc3F)c(=O)c(C(=O)O)cn4-c3nccs3)C2)nc1` [Example 586, 6-Fluoro-7-[3-(5-methylpyridine-2-amido)azetidin-1-yl]-4-oxo-1-(1,3-thiazol-2-yl)-1,4-dihydro-1,8-naphthyridine-3-carboxylic acid], the IC50 came out at 0.41 µM.

The next test has as its system relapsed/refractory acute myeloid leukemia.
Test: not given
The settings on record: overall survival targeting all patients; cited from earlier work.
As for `CNC1CN(c2ccc3c(=O)c(C(=O)O)cn(-c4nccs4)c3n2)CC1OC` (centres unmarked) [the compound, 1,4-dihydro-7-(3-methoxy-4-methylamino-1-pyrrolidinyl)-4-oxo-1-(2-thiazolyl)-1,8-naphthyridine-3-carboxylic acid, reference compound], the “therapeutic effect in overall survival (primary endpoint) as compared with a placebo group” value was “does not exhibit a significant therapeutic effect”.
